Test results reported in patent US20120316199A1, “COMPOSITIONS AND METHODS FOR TREATING, CONTROLLING, REDUCING, OR AMELIORATING INFLAMMATORY PAIN” (priority 2011, published 2012).

Tests used:
[1] = test system: leukocytes (PMN) in aqueous humor; test: Leukocytes (PMN) measurement in aqueous humor, rabbit paracentesis model; format: in vivo, Rabbit (New Zealand); conditions: second paracentesis, group mean
Description: Each rabbit was placed in a restraint device and tagged with the alphanumeric code. The formulations were instilled (50 μl) into the conjunctival sac of both eyes 180, 120, 90 and 30 min before the first paracentesis; then 15, 30, 90 min after the first paracentesis. To perform the first paracentesis the animals were anaesthetized by intravenous injection of 5 mg/kg Zoletil® (Virbac; 2.5 mg/kg tiletamine HCl and 2.5 mg/kg zolazepam HCl) and one drop of local anesthetic (Novesina®, Novartis) was administered to the eye. Anterior chamber paracentesis was performed with a 26 G needle attached to a tuberculin syringe; the needle was introduced into the anterior chamber through the cornea, taking care not to damage the tissues. Two hours after the first paracentesis, the animals were sacrificed with 0.4 ml Tanax® (Intervet International B.V.) and the second paracentesis was performed. About 100 μl of aqueous humor were removed at the second paracentesis. Aqueous humor was immediately split in four aliquots and stored at −80° C. until analysis. Then both eyes were enucleated and the iris-ciliary body was carefully excised, placed in polypropylene tubes, and stored at −80° C. until analysis.
For the determination of the number of leukocytes we used a haernocytometer (Improved Neubauer Chamber; Bright-line, Hausser Scientific) and a Polyvar 2 microscope (Reichert-Jung).
Pupillary diameter, PGE2, protein, PMN, and MPO were expressed as mean±SEM. Statistical analysis was performed using one way ANOVA followed by a Newman-Keuls post hoc test. Clinical score was expressed as % of eyes and the statistical analysis was performed using Kruskal-Wallis followed by a Dunn post hoc test. P<0.05 was considered statistically significant in both cases. Prism 4 software (GraphPad Software, Inc.) was used for the analysis and graphs.

rabbit eyes = test: Ophthalmic observations (slit lamp, McDonald Shadduck scores) in New Zealand White rabbits; format: in vivo; parameters: key to Ophthalmic Observation (Slit-Lamp): AN = Appeared normal; key to Cornea Score: CORNEA 1 = Some loss of transparency. Only the epithelium and/or the anterior half of the stoma are involved. The underlying structures are clearly visible although some cloudiness may be readily apparent
Description: Prior to placement on study, each animal underwent a pre-treatment ophthalmic examination (slit lamp and indirect ophthalmoscopy). Observations were scored according to the McDonald Shadduck system and recorded using a standardized data collection sheet.
On Days 1-31, animals received daily topical doses of the appropriate test article into the right eye. Animals were dosed four times per day, with doses administered 2 hours apart. Doses were administered using a calibrated 50-μL pipette. The eyelids were held close for 10 seconds immediately following dosing. The time of each dose administration was recorded.
Ophthalmic examinations (slit lamp) were performed prior to the first dosing on Days 5, 12, 22, 26, and 33. Ocular findings were scored according to the McDonald Shadduck system and recorded using a standardized data collection sheet.

[2] = test system: anterior chamber cells and flare following cataract surgery; test: Clinical study after cataract surgery: resolution of anterior chamber (AC) cells and flare; format: in vivo, human; conditions: 2% QID, 3% QD, 3% BID, and 3% QID
Description: (§1) There were 8 treatment groups in this study, consisting of three drug doses, vehicle and three dosing frequencies (see also Table 4-1): • Group A: 1% BOL-303242-X ophthalmic suspension, two times per day (BID) • Group B: 2% BOL-303242-X ophthalmic suspension, one time per day (QD) • Group C: 2% BOL-303242-X ophthalmic suspension, BID • Group D: 2% BOL-303242-X ophthalmic suspension, four times per day (QID) • Group E: 3% BOL-303242-X ophthalmic suspension, QD • Group F: 3% BOL-303242-X ophthalmic suspension, BID • Group G: 3% BOL-303242-X ophthalmic suspension, QID • Group H: Vehicle for BOL-303242-X (divided equally into QID, BID, and QD)
Subjects self-administered study drug, instilling 1 to 2 drops of study drug into the study eye: QID at approximately 4 hour intervals, BID at approximately 12 hour intervals, or QD once in the morning, for 14 days. The initial dose occurred in the clinic at Visit 3 and the final dose was on the day before Visit 6 (postoperative Day 15±1 day). Subjects were examined and evaluated according to the following schedule:
Visit 1 (screening), Visit 2 (cataract surgery), Visit 3 (postoperative Day 1), Visit 4 (postoperative Day 3±1 day), Visit 5 (postoperative Day 8±1 day), Visit 6 (postoperative Day 15±1 day), Visit 7 (postoperative Day 18±1 day). […]

[3] = test system: intraocular pressure (IOP); test: Clinical study after cataract surgery: intraocular pressure (safety); format: in vivo, human
Description: as §1
(§2) Visit 1 (screening), Visit 2 (cataract surgery), Visit 3 (postoperative Day 1), Visit 4 (postoperative Day 3±1 day), Visit 5 (postoperative Day 8±1 day), Visit 6 (postoperative Day 15±1 day), Visit 7 (postoperative Day 18±1 day). Subject assessments included adverse events (AEs), concomitant medications, ocular symptoms, pinholed Snellen visual acuity (VA), intraocular pressure (IOP), ocular signs (biomicroscopy), fundoscopy, and study drug drop sensation. In addition, subject diaries were collected and reviewed for accuracy and treatment compliance.
(§3) Safety: The safety endpoints in this study were: incidence of AEs, change in IOP, ocular signs (biomicroscopy), Snellen VA, fundoscopy, study drug drop sensation assessment.

visual acuity = test: Clinical study after cataract surgery: Snellen visual acuity (safety); format: in vivo, human; conditions: overall
Description: as §1, §2, §3

[4] = test system: PGE2 release by IL-1β-induced human conjunctival fibroblasts (HConF); test: IL-1β-induced PGE2 release in human conjunctival fibroblasts (ELISA); format: cell-based; conditions: 3, 10, 30, 100, 300, 1000 nM, 18 hours; ELISA (FIG. 6)
Description: Human conjunctival fibroblasts (HConF) were seeded in 24-well plates in complete Fibroblast Medium (FM) which contained 2% fetal bovine serum (FBS) and Fibroblast Growth Supplement (FGS). After reaching confluence (about 95%), cells were conditioned in basic FM that had been supplemented with 0.5% charcoal-dextran treated fetal bovine serum (CD-FBS) and without Fibroblast Growth Supplement (FGS) for 24 hours. […] Plates were performed in triplicate. Culture media were evaluated for PGE, release by ELISA.

[5] = Group B, 10 mg/g, treated right eye, individual animals
[6] = Group C, 5 mg/g, treated right eye, individual animals

SMILES: Cc1ccc2c(NC[C@](O)(CC(C)(C)c3cc(F)cc4c3OCC4)C(F)(F)F)cccc2n1 [BOL-303242-X, mapracorat]
- PMN numbers in aqueous humor, Mean ([1]; 0.1% formulation): 28.333 number/μl
- PMN numbers in aqueous humor, Mean ([1]; 0.5% formulation): 21.250 number/μl
- PMN numbers in aqueous humor, Mean ([1]; 1% formulation): 28.750 number/μl
- Slit-lamp ophthalmic finding in dosed right eye (rabbit eyes; 1 mg/g suspension, one eye (Group D, No. 3043)): subconjunctival hemorrhage
- Slit-lamp ophthalmic finding in dosed right eye (rabbit eyes; 10 mg/g suspension, one eye (Group B, No. 3083)): pinpoint corneal scar
- Surface area of cornea involvement Score (rabbit eyes; Group B, 10 mg/g, treated right eye, animal 3083, Day 5): 1 (SURFACE AREA OF CORNEA INVOLVEMENT 1 = 1-25% area of stromal cloudiness.)
- Cornea Score (rabbit eyes; Group B, 10 mg/g, treated right eye, animal 3083, Day 5, pinpoint corneal scar): 1^(2)
- Conjunctival congestion Score (rabbit eyes; [5]): 1
- Ophthalmic Observation (Slit-Lamp) (rabbit eyes; [5]): AN
- Conjunctival congestion Score (rabbit eyes; [6]): 1
- Ophthalmic Observation (Slit-Lamp) (rabbit eyes; [6]): AN
- Conjunctival congestion Score (rabbit eyes; Group D, 1 mg/g, treated right eye, individual animal, Day 22): 1
- Ophthalmic Observation (Slit-Lamp) (rabbit eyes; Group D, 1 mg/g, treated right eye, individual animals): AN
- Ophthalmic observation associated with unilateral topical instillation (rabbit eyes; four times daily up to 31 days, BOL-303242-X 0.05, 0.25, or 0.5 mg/dose, dexamethasone 0.05 mg/dose): sporadic mild conjunctival congestion
- improvements in AC cells and Grade 0 pain at Visit 5 (postoperative Day 8) [2]: statistically significant improvements
- mean IOP values among dose groups ([3]; 2% QID and 3% QD groups, Visit 4 (postoperative Day 3) to Visit 7 (postoperative Day 18)): lowest mean TOP values
- proportion of subjects with mean IOP changes from baseline of ≧5 mmHg or ≧10 mmHg, compared to vehicle ([3]; any dose groups at any study visits): no statistically significant differences
- subjects whose VA did not decline by two lines or more (visual acuity): more than 92%
- Inhibition of PGE2 production by IL-1β-induced HConF [4]: successfully inhibits
